# “Also recorded” adds a separate entry of the source.
# Columns and labels:
# Type in all cases: physicochemical
# [1] = Antisolvent crystallization (Example 2D), XRPD; settings: for XRPD results of direct antisolvent experiments: direct addition; for XRPD results of reverse antisolvent experiments: reverse addition
# Experimental: Antisolvent crystallization was done in various solvent systems. First, about 30 mg solid free base of Compound (I) characterized by XRPD Pattern C (solid form C) was dissolved in solvent. Then antisolvent crystallization was done either using the direct or reverse addition method. For direct addition, antisolvent was added dropwise to the solution until a slurry was formed. For reverse addition, solution was added all at once to the antisolvent. The volume of antisolvent used was 4 times the volume of solvent required to dissolve the solid. For example, if 0.15 mL solvent was required to dissolve the solid then the solution was added at once to […] antisolvent. Once solids were formed, the slurries were filtered and solids were recovered for XRPD analysis.
# [2] = Short term slurries (Example 2A), XRPD; settings: short term slurry, starting solids Pattern C
# Experimental: Short term slurries were carried out at two temperature in 15 solvents during the initial screening. Starting solids were Pattern C. Most solids were Pattern C after slurrying. Solids converted to Pattern A in EtOH, IPA, acetone, and acetonitrile at both temperatures.
# The upper phase was sticky and when filtered yielded a low amount of a solid form characterized by XRPD Pattern H.
# [3] = Drying of free base solid forms (XRPD); settings: 50° C., (under vacuum where stated)
# [4] = Evaporative crystallization (Example 2B), XRPD; settings: evaporative crystallization at 50° C., to be confirmed by other analytical methods
# Experimental: Supernatant from some slurries was recovered for evaporative crystallization. The solutions were evaporated to dryness at 50° C. in atmospheric pressure and then placed at 50° C. under vacuum for 1.5 hours. […] It is possible that these solids were solvates with structures that collapsed to amorphous solids upon drying. Where two experiment numbers are indicated, evaporation was at different concentration.
# [5] = Cooling crystallization (Example 2C), XRPD; settings: for XRPD Pattern (fast cool): crash cooling from 50° C. to 0° C.; for XRPD Pattern (slow cool): from 50° C. at 5° C. per hour
# Experimental: Cooling crystallization was done in a range of solvent systems. Two cooling regimes were used: cooling from 50° C. at 5° C. per hour, and crash cooling from 50° C. to 0° C. In all experiments, solids were completely dissolved before cooling. […] Cooling in THF gave two low crystallinity solids, Solid form N (fast cooling), and solid form I (slow cooling).
# [6] = Competitive slurry experiments between free base solid forms
# [7] = Dynamic vapor sorption (DVS); settings: for XRPD / form stability after DVS humidity cycling: XRPD before and after DVS
# [8] = Humidity exposure, 75% relative humidity at 40° C. for one week, XRPD; settings: one week / 7 days, XRPD
# [9] = Thermal treatment in DSC followed by XRPD (Example 2G); settings: 150° C.
# Text: Select solids were used for thermal treatment in DSC. Solids were heated to specified temperature and then cooled back to room temperature for analysis by XRPD.
# [10] = solvent DMAc, antisolvent cyclohexane
# [11] = solvent DMAc, antisolvent water
# [12] = cooling crystallization, ACN water (8:2 vol)
# [13] = cooling crystallization, DMAc:ACN (2:8 vol)
# [14] = cooling crystallization, DMAc:IPA (2:8 vol)
# [15] = cooling crystallization, DMSO:ACN (2:8 vol)
# [16] = cooling crystallization, DMSO:IPA (2:8 vol)
# [17] = cooling crystallization, MeOH chloroform (1.88:1 vol), wet solid before drying
compound,measurement,setting,value
"CO[C@]1(C(=O)N[C@@H](C)c2ccc(-n3cc(F)cn3)nc2)CC[C@H](c2nc(C)cc(Nc3cc(C)[nH]n3)n2)CC1 [Solid Form C, pralsetinib]",XRPD results of direct antisolvent experiments,[1]; [10],phase sep.
same,XRPD results of direct antisolvent experiments,[1]; [11],C + some B (wet)
same,XRPD results of direct antisolvent experiments,"[1]; solvent THF, antisolvent water",oiling
same,XRPD results of reverse antisolvent experiments,[1]; [10],phase sep.
same,XRPD results of reverse antisolvent experiments,[1]; [11],C (wet)
same,XRPD results of reverse antisolvent experiments,"[1]; solvent MeOH, antisolvent water",C (wet)
same,XRPD results of reverse antisolvent experiments,"[1]; solvent THF, antisolvent heptane",am. (wet)
same,XRPD results of reverse antisolvent experiments,"[1]; solvent THF, antisolvent water",C (wet)
same,XRPD Pattern,"[2]; EtOH, 22-23° C., dried solids",A (dry)
same,XRPD Pattern,"[2]; EtOH, 22-23° C., wet solids",A (wet)
same,XRPD Pattern,"[2]; IPAc, 50° C.",A + C
same,XRPD Pattern,"[2]; chloroform, 22-23° C., dried solids",H (dry)
same,XRPD Pattern,"[2]; chloroform, 22-23° C., wet solids",H (wet)
same,behaviour upon drying at 50° C.,[3],"converted to a dehydrate, Solid Form B"
same,behaviour upon drying at 50° C.,[3]; listed as Pattern C,pattern B
same,behaviour upon drying at 50° C.,[3]; listed as solid form C,stable
same,XRPD Pattern,"[4]; DCM, solution 37 mg/mL solvent",amorphous*
same,XRPD Pattern,"[4]; chloroform, solution 70 mg/mL solvent",amorphous*
same,XRPD Pattern (fast cool),"[5]; cooling crystallization, 1,4-dioxane",no solids (−20° C.)
same,XRPD Pattern (slow cool),"[5]; cooling crystallization, 1,4-dioxane, wet solid before drying",Q (wet)
same,XRPD Pattern (fast cool),"[5]; cooling crystallization, 1-propanol",no solids (−20° C.)
same,XRPD Pattern (slow cool),"[5]; cooling crystallization, 1-propanol, wet solid before drying",A (wet)
same,XRPD Pattern (fast cool),[5]; [12],no solids (−20° C.)
same,XRPD Pattern (slow cool),[5]; [12],no solids (−20° C.)
same,XRPD Pattern (fast cool),[5]; [13],no solids (−20° C.)
same,XRPD Pattern (slow cool),[5]; [13],no solids (−20° C.)
same,XRPD Pattern (fast cool),[5]; [14],no solids (−20° C.)
same,XRPD Pattern (slow cool),[5]; [14],no solids (−20° C.)
same,XRPD Pattern (fast cool),[5]; [15],no solids (−20° C.)
same,XRPD Pattern (slow cool),[5]; [15],no solids (−20° C.)
same,XRPD Pattern (fast cool),[5]; [16],no solids (−20° C.)
same,XRPD Pattern (slow cool),[5]; [16],no solids (−20° C.)
same,XRPD Pattern (fast cool),"[5]; cooling crystallization, EtOAc",no solids (−20° C.)
same,XRPD Pattern (slow cool),"[5]; cooling crystallization, EtOAc",very few solids
same,XRPD Pattern (fast cool),"[5]; cooling crystallization, EtOH",no solids (−20° C.)
same,XRPD Pattern (slow cool),"[5]; cooling crystallization, EtOH",no solids (−20° C.)
same,XRPD Pattern (fast cool),"[5]; cooling crystallization, IPA",no solids (−20° C.)
same,XRPD Pattern (slow cool),"[5]; cooling crystallization, IPA",A (wet)
same,XRPD Pattern (fast cool),"[5]; cooling crystallization, IPAc",no solids (−20° C.)
same,XRPD Pattern (slow cool),"[5]; cooling crystallization, IPAc",no solids (−20° C.)
same,XRPD Pattern (fast cool),[5]; [17],D (wet)
same,XRPD Pattern (slow cool),[5]; [17],D (wet)
same,XRPD Pattern (slow cool),"[5]; cooling crystallization, MeOH",no solids (−20° C.)
same,XRPD Pattern (fast cool),"[5]; cooling crystallization, THF",N (wet)
same,XRPD Pattern (slow cool),"[5]; cooling crystallization, THF, wet solid before drying",O + I (wet)
same,XRPD Pattern (fast cool),"[5]; cooling crystallization, acetone",no solids (−20° C.)
same,competitive slurry in acetone and isopropanol,[6],converted to solid form A
same,Competitive slurry MeOH: water (1:1 vol) at 23 and 50° C.,[6]; listed as Pattern C,C stable
same,"Competitive slurry isopropanol, MeOH:MtBE",[6]; listed as Pattern C,C converts to A
same,water gained during the dynamic vapor sorption measurements,[7],1.44%
same,hygroscopicity (words),[7]; DVS,not as hygroscopic as pralsetinib free base in solid form A
same,DVS Water Mass Change (wt. %),[7]; Table 3E,1.29-1.44 wt. %
same,XRPD / form stability after DVS humidity cycling,[7],the same
same,XRPD / form stability after DVS humidity cycling,[7]; listed as Solid form C,remained stable
same,reversible mass change by DVS,[7]; between 2-95% relative humidity,about 1.4%
same,total mass change observed by DVS,[7]; humidity range not given,1.4 wt. %
same,stability on exposure to 75% relative humidity at 40° C.,[8],remained stable
same,stability on exposure to 75% relative humidity at 40° C.,[8]; listed as Pattern C,remained unchanged
same,solid form after heating to 150° C.,[9],converted to Pattern B (anhydrous); also recorded: converted to solid form B

# Source: US12448366B2, “Solid forms of pralsetinib” (Rigel Pharmaceuticals, Inc., priority 2020, dated 2025)
